Data: patent US9335320B2, “Combinations of phosphoinositide 3-kinase inhibitor compounds and chemotherapeutic agents for the treatment of hematopoietic malignancies” (Genentech, Inc., priority 2009, dated 2016)
pEC50: −log10 of the molar value. Like-named read-outs stand apart in the source and are kept apart here. Each block holds one molecule with its values, some of them ahead of it.

Tests used:
SUDHL6 = experiment: CellTiter-Glo cell proliferation assay, SUDHL6; assay type: cell-based; settings: Homo sapiens, SU-DHL-6; SUDHL6 (DLBCL), single agent, Table 2
RI1 = experiment: CellTiter-Glo cell proliferation assay, RI1; assay type: cell-based; settings: Ri-1; RI1 (B-NHL), single agent, Table 2
SUDHL5 = experiment: CellTiter-Glo cell proliferation assay, SUDHL5; assay type: cell-based; settings: Homo sapiens, SU-DHL-5; SUDHL5 (DLBCL), single agent, Table 2
MC116 = experiment: CellTiter-Glo cell proliferation assay, MC116; assay type: cell-based; settings: Homo sapiens; MC116 (NHL), single agent, Table 2
WSUNHL = experiment: CellTiter-Glo cell proliferation assay, WSUNHL; assay type: cell-based; settings: Homo sapiens, WSU-NHL, single agent, Table 2
Rec1 = experiment: CellTiter-Glo cell proliferation assay, Rec1; assay type: cell-based; settings: Homo sapiens; Rec1 (B-NHL), single agent, Table 2
Granta519 = experiment: CellTiter-Glo cell proliferation assay, Granta519; assay type: cell-based; settings: Homo sapiens, Granta-519; Granta519 (MCL), single agent, Table 2
Farage = experiment: CellTiter-Glo cell proliferation assay, Farage; assay type: cell-based; settings: Farage (DLBCL), single agent, Table 2
OciLy19 = experiment: CellTiter-Glo cell proliferation assay, OciLy19; assay type: cell-based; settings: Homo sapiens, OCI-LY19; OciLy19 (DLBCL), single agent, Table 2
Jeko1 = experiment: CellTiter-Glo cell proliferation assay, Jeko1; assay type: cell-based; settings: Homo sapiens, JeKo-1; Jeko1 (MCL), single agent, Table 2
SUDHL4 = experiment: CellTiter-Glo cell proliferation assay, SUDHL4; assay type: cell-based; settings: Homo sapiens, SU-DHL-4; SUDHL4 (DLBCL), single agent, Table 2
HT = experiment: CellTiter-Glo cell proliferation assay, HT; assay type: cell-based; settings: Homo sapiens; HT (DLBCL), single agent, Table 2
DB = experiment: CellTiter-Glo cell proliferation assay, DB; assay type: cell-based; settings: Homo sapiens; DB (DLBCL), single agent, Table 2
Ramos = experiment: CellTiter-Glo cell proliferation assay, Ramos; assay type: cell-based; settings: Homo sapiens; Ramos (Burkit's), single agent, Table 2
SC1 = experiment: CellTiter-Glo cell proliferation assay, SC1; assay type: cell-based; settings: Homo sapiens, SC-1; SC1 (DLBCL), single agent, Table 2
Toledo = experiment: CellTiter-Glo cell proliferation assay, Toledo; assay type: cell-based; settings: Homo sapiens; Toledo (DLBCL), single agent, Table 2
EJM = experiment: CellTiter-Glo cell proliferation assay, EJM; assay type: cell-based; settings: Homo sapiens, read-out: EC50 (μM) GDC-0941 (single agent), Table 4
KSM-12-BM = experiment: CellTiter-Glo cell proliferation assay, KSM-12-BM; assay type: cell-based; settings: Homo sapiens, read-out: EC50 (μM) GDC-0941 (single agent), Table 4
[1] = test system: primary follicular lymphoma cells from patient NHL600; experiment: Cell-Titer Glo survival and proliferation assay, primary follicular lymphoma cells; assay type: cell-based, human; settings: patient NHL600, FIG. 4, single agent
Description: GDC-0464 (Genentech, Inc.) is a potent thienopyrimidine PI3K inhibitor (US 2008/0076758). LY294002 (Eli Lilly & Co., CAS Reg. No. 154447-36-6) is also a potent inhibitor of PI3 kinases (WO 2003/035099).

[2] = test system: p-AKT and p-S6RP in DoHH2, WSU-DLCL2, OPM2, and U266 cells; experiment: FACS intracellular detection of p-Akt and p-S6 ribosomal protein; assay type: cell-based, human; settings: 5 μM for 4 hrs, FIGS. 1a and 1b
Description: (§3) B cell lines (DoHH2 and WSU-DLCL2) and Myeloma cell lines (OPM2 and U266) were maintained in RPMI-1640/10% FBS in the presence of Pen/Strep and Glutamine.
Seed 10^7 cells of each cell line in 10 mL culture media in 10 cm Petri dish, 2 dishes for each cell line. • 2. […] Keep cells at 37° C., 5% CO2 incubator for 4 hours before harvesting. • 4. Transfer 1 mL of each condition (equivalent to 10^6 cells) to 5 mL FACS tube (BD) and spin at 1200 rpm for 5 min prior to fixation (harvest the other 9 mL culture-9×10^6 cells to 15 mL conical tube for Western). • 5. Aspirate the supernatant and fix the cells at room temperature with Fix/Perm Medium A (CAT #GAS001S-100) for 15 min. • 6. Wash the cells with PBS/2% FBS 1× • 7. Aspirate the supernatant and permeabilize the cells at room temperature with Fix/Perm Medium B (CAT #GAS002S-100) for 15 min. • 8. Wash the cells with PBS/2% FBS 1× • 9. Resuspend cells with 300 uL PBS/2% BSA and divide cells into 3 tubes 100 uL each (one for isotype-Rabbit IgG Alexa Fluor-647 and one for p-Akt Alexa Fluor-647 clone 193H12 and one for p-S6RP Alexa Fluor-647 clone D57.2.2E, all rabbit abs are from Cell Signaling). • 10. Add 50 ng of each Ab to corresponding tube and incubate at room temperature for 30 min. • 11. Wash the cells with PBS/2% FBS 1× • 12. Resuspend cells with 300 uL PBS/2% BSA and acquire data on FACSCalibur (BD) using CellQuest program. • 13. […]

[3] = test system: p-AKT and p-S6RP in DoHH2, WSU-DLCL2, OPM2, and U266 cells; experiment: Western blotting for p-Akt, p-BAD and p-S6 ribosomal protein; assay type: cell-based, human; settings: 5 μM for 4 hrs, FIG. 2
Description: Cells were treated as indicated and lysates analyzed by Western Blotting. Beta Actin blotting indicates approximately equal loading of lysates in each lane.
as §3
Protocol: • 1. Seed 10^7 cells of each cell line in 10 mL culture media in 10 cm Petri dish, 2 dishes for each cell line. • 2. […] Keep cells at 37° C., 5% CO2 incubator for 4 hours before harvesting. • 4. Harvest 9 mL culture (equivalent to 9×10^6 cells) to 15 mL conical tube and pellet and make cell lysates with 1×SDS sample buffer. Transfer the other 1 mL of each condition (equivalent to 1×10^6 cells) to 5 mL FACS tube (BD) for FACS. • 5. Wash cells once with cold PBS. • 6. Measure the OD of the protein samples and prepare the samples with NuPAGE electrophoresis system reagents to load 20 ug of each. • 7. Mix each protein sample for electrophoresis with appropriate amount of NuPAGE LDS sample buffer and Reducing Agent and apply 70° C. heat for 10 min. • 8. Load 10 uL of SeeBlue Plus2 Pre-stained standard and 20 ug of each sample into 4-12% NuPAGE Norvex Bis-Tris Gel and run with MES-SDS buffer in the presence of antioxidant (135 volts for 1 hour in the XCell SureLock Mini-Cell apparatus). • 9. Transfer gels to the blotting membrane using iBlot apparatus. • 10. […]

[4] = test system: WSU-DLCL2 lymphoma tumor xenografts; experiment: In vivo tumor xenograft efficacy, WSU-DLCL2; parameters: species or system mice; settings: for effect on tumor growth (mean tumor volume change): FIG. 18, 25 days, GDC-0941 60 mg/kg po, Formula Ib 1 mg/kg po, Rapamycin 6 mg/kg ip
Description: (§1) Xenografts were initiated with cancer cells.
(§2) Animals were monitored for regression responses.

[5] = test system: BJAB lymphoma tumor xenografts; experiment: In vivo tumor xenograft efficacy, BJAB; parameters: species or system mice
Description: as §1, §2

[6] = test system: multiple myeloma OPM-2 cell xenografts; experiment: In vivo tumor xenograft efficacy, OPM-2; parameters: species or system mice; settings: FIG. 13, 24 days; GDC-0941 73 mg/kg po, bortezomib 0.5 mg/kg iv, lenalidomide 25 mg/kg ip, dexamethasone 3 mg/kg po
Description: as §1, §2

[7] = test system: primary diffuse large B-cell lymphoma (DLBCL) cells from patient NHL640-A055; settings: patient NHL640-A055, FIG. 5
[8] = test system: DoHH2 lymphoma tumor xenografts; experiment: In vivo tumor xenograft efficacy, DoHH2; settings: FIG. 8, 34 days; GDC-0941 73 mg/kg po daily 21 days, rituximab 5 mg/kg iv qwk×3, CHOP
Description: The efficacy of the combinations of the invention may be measured in vivo by implanting allografts or xenografts of cancer cells in rodents and treating the tumor-bearing animals with the combinations.
The animals were fed ad libitum water (reverse osmosis, 1 ppm Cl) and NIH 31 Modified and Irradiated Lab Diet® consisting of 18.0% crude protein, 5.0% crude fat, and 5.0% crude fiber. The mice were housed on irradiated ALPHA-Dri® Bed-O'Cobs® Laboratory Animal Bedding in static microisolators on a 12-hour light cycle at 21-22° C. (70-72° F.) and 40-60% humidity.
Xenografts were initiated with cancer cells. […] On the day of tumor implant, each test mouse received 1×10^7 cells (0.2 mL) implanted subcutaneously in the right flank, and tumor growth was monitored as the average size approached the target range of 100 to 150 mm3. […] Volume was calculated using the formula: Tumor Volume (mm^3)=(w^2×l)/2 […]
Tumors were measured twice each week using calipers. Mice were monitored individually, and each animal was euthanized when its tumor reached a volume of 1500 mm3 or at the end of the study on Day 40, whichever came first. […] The time to endpoint (TTE) for each mouse was calculated from the following equation: TTE (days)=[log10(endpoint volume,mm^3)−b]/m […]

Bjab = experiment: CellTiter-Glo cell proliferation assay, Bjab; settings: Homo sapiens
Description: (§4) The homogeneous assay procedure involves adding the single reagent (CellTiter-Glo® Reagent) directly to cells cultured in serum-supplemented medium. Cell washing, removal of medium and multiple pipetting steps are not required. The system detects as few as 15 cells/well in a 384-well format in 10 minutes after adding reagent and mixing.
(§5) The individual measured EC50 values of the Formula I compounds and of the chemotherapeutic agent against the particular cell are compared to the combination EC50 value. […] A CI less than 0.8 indicates synergy. A CI between 0.8 and 1.2 indicates additivity. A CI greater than 1.2 indicates antagonism. The strength of synergy is assessed according to Chou and Talalay.
(§6) The CellTiter-Glo® Luminescent Cell Viability Assay, including reagents and protocol are commercially available (Promega Corp., Madison, Wis., Technical Bulletin TB288). The assay assesses the ability of compounds to enter cells and inhibit cell proliferation. The assay principle is based on the determination of the number of viable cells present by quantitating the ATP present in a homogenous assay where addition of the Cell-Titer Glo reagent results in cell lysis and generation of a luminescent signal through the luciferase reaction. […]
(§7) Day 5—Develop Plates, Thaw Cell Titer Glo Buffer at room temperature. […] Read luminescence on Analyst HT Plate Reader (half second per well). […]

OPM2 = experiment: CellTiter-Glo cell proliferation assay, OPM2
Description: as §4, §5, §6, §7

DoHH2 = experiment: CellTiter-Glo cell proliferation assay, DoHH2
Description: (§8) The in vitro potency of the combinations of Formula I compounds with chemotherapeutic agents was measured by the cell proliferation assay of Example 15; the CellTiter-Glo® Luminescent Cell Viability Assay, commercially available from Promega Corp., Madison, Wis. […] The homogeneous assay procedure involves adding the single reagent (CellTiter-Glo® Reagent) directly to cells cultured in serum-supplemented medium. Cell washing, removal of medium and multiple pipetting steps are not required. The system detects as few as 15 cells/well in a 384-well format in 10 minutes after adding reagent and mixing.
The individual measured EC50 values of the Formula I compounds and of the chemotherapeutic agent against the particular cell are compared to the combination EC50 value. The combination index (CI) score is calculated by the Chou and Talalay method (Chou, T. and Talalay, P. (1984) Adv. Enzyme Regul. 22:27-55). A CI less than 0.8 indicates synergy. A CI between 0.8 and 1.2 indicates additivity. A CI greater than 1.2 indicates antagonism. The strength of synergy is assessed according to Chou and Talalay.
The assay assesses the ability of compounds to enter cells and inhibit cell proliferation. The assay principle is based on the determination of the number of viable cells present by quantitating the ATP present in a homogenous assay where addition of the Cell-Titer Glo reagent results in cell lysis and generation of a luminescent signal through the luciferase reaction. The luminescent signal is proportional to the amount of ATP present.
Procedure: Day 1—Seed Cell Plates (384-well black, clear bottom, microclear, TC plates with lid from Falcon #353962), Harvest cells, Seed cells at 1000 cells per 54 μl per well into 384 well Cell Plates for 3 days assay. Cell Culture Medium: RPMI or DMEM high glucose, 10% Fetal Bovine Serum, 2 mM L-Glutamine, P/S. Incubate O/N at 37 C, 5% CO2.
Day 2—Add Drug to Cells, Compound Dilution, DMSO Plates (serial 1:2 for 9 points), Add 20 ul compounds at 10 mM in the 2nd column of 96 well plate. […]

MM1.S = experiment: CellTiter-Glo cell proliferation assay, MM1.S; settings: Homo sapiens, read-out: EC50 (μM) GDC-0941 (single agent)
Description: as §8
(§9) The individual measured EC50 values of the Formula I compounds and of the chemotherapeutic agent against the particular cell are compared to the combination EC50 value. The combination index (CI) score is calculated by the Chou and Talalay method (Chou, T. and Talalay, P. (1984) Adv. Enzyme Regul. 22:27-55). A CI less than 0.8 indicates synergy. […] The strength of synergy is assessed according to Chou and Talalay.
(§10) The assay assesses the ability of compounds to enter cells and inhibit cell proliferation. The assay principle is based on the determination of the number of viable cells present by quantitating the ATP present in a homogenous assay where addition of the Cell-Titer Glo reagent results in cell lysis and generation of a luminescent signal through the luciferase reaction. […]

MOLP-8 = experiment: CellTiter-Glo cell proliferation assay, MOLP-8; settings: Homo sapiens, MOLP-8, read-out: EC50 (μM) GDC-0941 (single agent)
Description: as §8, §9, §10

NCI-H929 = experiment: CellTiter-Glo cell proliferation assay, NCI-H929; settings: Homo sapiens, NCI-H929, read-out: EC50 (μM) GDC-0941 (single agent)
Description: as §8, §9, §10

WSU-DLCL2 = experiment: CellTiter-Glo cell proliferation assay, WSU-DLCL2; settings: Homo sapiens
Description: as §8, §9, §10

RPMI-8226 = experiment: CellTiter-Glo cell proliferation assay, RPMI-8226; settings: Homo sapiens, RPMI-8226, read-out: EC50 (μM) GDC-0941 (single agent)
Description: as §8, §9, §10

[9] = test system: NCI-H929 multiple myeloma xenografts; experiment: In vivo tumor xenograft efficacy, NCI-H929; parameters: species or system mice; settings: for antitumor activity (mean tumor volume change): lenalidomide 25 mg/kg ip
Description: as §1, §2

[10] = FIG. 16, 33 days, GDC-0941 75 mg/kg po, bortezomib 0.5 mg/kg iv, dexamethasone 3 mg/kg po

pEC50 (SUDHL6): 8.00
pEC50 (SUDHL5): 7.10
pEC50 (SUDHL4): 5.87
pEC50 (Ramos): ≤ 5.00
EC50 (MM1.S): 0.22 µM
EC50 (NCI-H929): 0.43 µM
EC50 (RPMI-8226): 2.53 µM
SMILES: CS(=O)(=O)N1CCN(Cc2cc3nc(-c4cccc5[nH]ncc45)nc(N4CCOCC4)c3s2)CC1 [GDC-0941, 4-(2-(1H-indazol-4-yl)-6-((4-(methylsulfonyl)piperazin-1-yl)methyl)thieno[3,2-d]pyrimidin-4-yl)morpholine]
pEC50 (RI1): 7.40
pEC50 (MC116): 6.80
pEC50 (WSUNHL): 6.80
pEC50 (Rec1): 6.80
pEC50 (Granta519): 6.68
pEC50 (Farage): 6.62
pEC50 (OciLy19): 6.49
pEC50 (Jeko1): 6.49
pEC50 (HT): 5.55
pEC50 (DB): ≤ 5.00
pEC50 (SC1): ≤ 5.00
pEC50 (Toledo): ≤ 5.00
EC50 (EJM): 1.5 µM
EC50 (KSM-12-BM): > 5 µM
potency against primary cancer cells (viable cells) [1]: surprising and unexpected degree of potency
p-AKT signal (flow cytometry) [2]: abolished p-AKT signal
p-S6RP signal (flow cytometry) [2]: reduced or abolished p-S6RP signal
p-AKT signal (western blotting) [3]: significantly reduced (where present)
p-S6RP signal (western blotting) [3]: significantly reduced (where present)
antitumor activity (mean tumor volume change) ([4]; FIG. 7, 20 days, GDC-0941 73 mg/kg po daily 21 days, rituximab 5 mg/kg days 0, 7, 14, CHOP from day 0): only modest activity
effect on tumor growth (mean tumor volume change) [4]: little effect on tumor growth
antitumor activity (mean tumor volume change) ([5]; FIG. 10, 25 days, GDC-0941 73 mg/kg po daily 21 days, CHOP from day 0): only modest activity
antitumor activity (mean tumor volume change) ([5]; FIG. 11, 25 days, GDC-0941 75 mg/kg po qd×21, rituximab 5 mg/kg days 0, 7, 14): only modest activity
antitumor activity (mean tumor volume change) [6]: indistinguishable and moderate tumor activity
cell viability, relative potency [7]: significantly more potent than doxorubicin
antitumor activity (mean tumor volume change) [8]: significantly different than vehicle
pEC50 (Bjab): 6.48
EC50 (Bjab; read-out: EC50 (μM) GDC-0941 (single agent)): 0.33 µM
EC50 (OPM2; Homo sapiens, OPM-2, read-out: EC50 (μM) GDC-0941 (single agent)): 1.23 µM
pEC50 (DoHH2; Homo sapiens, DOHH-2): 6.59
EC50 (DoHH2; Homo sapiens, DOHH-2, read-out: EC50 (μM) GDC-0941 (single agent)): 0.16 µM
EC50 (MOLP-8): 0.06 µM
pEC50 (WSU-DLCL2; WSUDLCL2): 6.89
EC50 (WSU-DLCL2; WSUDLCL2, read-out: EC50 (μM) GDC-0941 (single agent)): 0.17 µM

SMILES: Cc1c(CN2CCN(C(=O)[C@H](C)O)CC2)sc2c(N3CCOCC3)nc(-c3cnc(N)nc3)nc12 [Formula Ib, (S)-1-(4-((2-(2-aminopyrimidin-5-yl)-7-methyl-4-morpholinothieno[3,2-d]pyrimidin-6-yl)methyl)piperazin-1-yl)-2-hydroxypropan-1-one]
effect on tumor growth (mean tumor volume change) [4]: little effect on tumor growth

SMILES: Nc1cccc2c1CN(C1CCC(=O)NC1=O)C2=O (stereo not shown) [lenalidomide, 3-(4-amino-1-oxoisoindolin-2-yl)piperidine-2,6-dione]
antitumor activity (mean tumor volume change) [9, 10]: modest activity
antitumor activity (mean tumor volume change) [6]: indistinguishable and moderate tumor activity

SMILES: C[C@@H]1C[C@H]2[C@@H]3CCC4=CC(=O)C=C[C@]4(C)[C@@]3(F)[C@@H](O)C[C@]2(C)[C@@]1(O)C(=O)CO [dexamethasone, (8S,9R,10S,11S,13S,14S,16R,17R)-9-fluoro-11,17-dihydroxy-17-(2-hydroxyacetyl)-10,13,16-trimethyl-6,7,8,11,12,14,15,16-octahydrocyclopenta[a]phenanthren-3-one, reference compound]
antitumor activity (mean tumor volume change) [9, 10]: modest activity
antitumor activity (mean tumor volume change) [6]: indistinguishable and moderate tumor activity
response in cell proliferation assay (OPM2; multiple myeloma OPM2 cells, FIG. 6, single agent): relatively weak response
single agent activity on viable cells (dose-response) (DoHH2; B-NHL cell line DoHH2, FIG. 3): relatively impotent activity

SMILES: CC(C)C[C@H](NC(=O)[C@H](Cc1ccccc1)NC(=O)c1cnccn1)B(O)O [bortezomib, [(1R)-3-methyl-1-({(2S)-3-phenyl-2-[(pyrazin-2-ylcarbonyl)amino]propanoyl}amino)butyl]boronic acid]
antitumor activity (mean tumor volume change) ([9]; FIG. 12, 22 days, single agents, GDC-0941 73 mg/kg po, bortezomib 1 mg/kg iv, dexamethasone 10 mg/kg po): exceeded by the efficacy of bortezomib
partial responses ([9]; FIG. 12, cohorts of 10 mice): 3
antitumor activity (mean tumor volume change) [9, 10]: modest activity
antitumor activity (mean tumor volume change) [6]: sub-clinical response which was not different than that of vehicle
